Reference: US11548849B2, “Alcohol derivatives as KV7 potassium channel openers” (H. Lundbeck A/S, priority 2019, dated 2023)

Target: T1, hKv7.2/hKv7.3 (Homo sapiens, UniProt O43525+O43526)
T1 construct: P2A self-cleaving peptide (between Kv7.3 and Kv7.2; the remnant would stay on the upstream protein) (C); expressed in transfected cells
Assay: Thallium influx assay for potassium channel activation
Assay type: cell-based
Settings: HEK-hKv7.2/hKv7.3 cells; FLIPR Potassium Assay kit; AUC readout normalized to a reference compound
Protocol: A synthesized cDNA fragment encoding human Kv7.3 and human Kv7.2 separated by a P2A sequence was inserted into the pcDNA5/FRT/TO vector using the BamHI and XhoI restriction sites. The construct was then transfected into HEK Flp-In 293 cells using Lipofectamine2000. The transfected cells were grown for 48 hours in DMEM containing 10% (v/v) FBS and 1% PenStrep and subsequently maintained under selection in DMEM containing 10% (v/v) FBS, 1% PenStrep and 200 ug/mL Hygromycin B at 37° C. in a humidified atmosphere of 5% CO2.
The thallium influx assay for potassium channel activation was performed analogously to a published procedure (C. D. Weaver, et al., J Biomol Screen 2004, 9, 671-677) using the FLIPR Potassium Assay kit (Molecular Devices). HEK-hKv7.2/hKv7.3 cells were plated onto 96-well, black-walled, clear-bottomed culture plates (Corning, Acton, Mass., USA) at a density of 80,000 cells/well (100 μl/well) if the cells were assayed the following day, or 40,000 cells/well (100 μl/well) if the cells were assayed two days after seeding.
On the assay day, the medium was removed after which 50 uL/well of test compound diluted to 2× final concentration in HBSS containing 20 mM HEPES, and 50 uL/well of 2× dye load buffer were added. The cells were then incubated for 60 min at room temperature in the dark. Chloride-free stimulation buffer containing Tl^+ and K^+ at 5× final concentration (5× concentration: 5 mM in both cases) and test compound at 1× final concentration, were prepared during the incubation. The cells were then assayed in a FDSS7000EX Functional Drug Screening System (Hamamatsu). Following 60 sec of baseline fluorescence signal reading at 0.1 Hz, and 10 sec at 1 Hz, 25 uL/well of stimulation buffer were added and the fluorescence continuously measured for 50 sec at 1 Hz followed, by 4 min at 0.1 Hz. Compound effect was quantified using AUC as readout and normalized to a reference compound, which was included on each plate.

| SMILES | EC50 |
| --- | --- |
| CC(C)(C)C(O)CC(=O)N[C@@H](COC(F)F)c1cccc(OC(F)F)c1 (single isomer, unassigned) [Example 1a] | 7.6 µM |
| CC(C)(C)C(O)CC(=O)N[C@@H](COC(F)F)c1cccc(OC(F)F)c1 (single isomer, unassigned) [Example 1b] | 0.42 µM |
| CCOC[C@H](NC(=O)CC(O)C(C)(C)C)c1cccc(OC(F)(F)F)c1 (single isomer, unassigned) [Example 2a] | 10 µM |
| CCOC[C@H](NC(=O)CC(O)C(C)(C)C)c1cccc(OC(F)(F)F)c1 (single isomer, unassigned) [Example 2b] | 1.8 µM |
| O=C(CC(O)C1(C(F)(F)F)CC1)N[C@@H](COC(F)F)c1cccc(OC(F)F)c1 (single isomer, unassigned) [Example 3a] | 2.8 µM |
| O=C(CC(O)C1(C(F)(F)F)CC1)N[C@@H](COC(F)F)c1cccc(OC(F)F)c1 (single isomer, unassigned) [Example 3b] | 2.4 µM |
| O=C(CC(O)C1(C(F)(F)F)CC1)N[C@@H](COC(F)F)c1cccc(OC(F)(F)F)c1 (single isomer, unassigned) [Example 4a] | 1.7 µM |
| O=C(CC(O)C1(C(F)(F)F)CC1)N[C@@H](COC(F)F)c1cccc(OC(F)(F)F)c1 (single isomer, unassigned) [Example 4b] | 2.9 µM |
| O=C(CC(O)C1CC(F)(F)C1)N[C@@H](COC(F)F)c1cccc(OC(F)F)c1 (single isomer, unassigned) [Example 5a] | 1.2 µM |
| O=C(CC(O)C1CC(F)(F)C1)N[C@@H](COC(F)F)c1cccc(OC(F)F)c1 (single isomer, unassigned) [Example 5b] | 4.5 µM |
| CC(C)(C)[C@@H](O)CC(=O)N[C@@H](COC1CC1)c1cccc(OC(F)F)c1 [Example 17, (S)—N—((R)-2-cyclopropoxy-1-(3-(difluoromethoxy)phenyl)ethyl)-3-hydroxy-4,4-dimethylpentanamide] | 1.5 µM |
| CC(C)(C)[C@@H](O)CC(=O)N[C@@H](COC(F)(F)F)c1cccc(OC(F)F)c1 [Example 18, (S)—N—((R)-1-(3-(difluoromethoxy)phenyl)-2-(trifluoromethoxy)ethyl)-3-hydroxy-4,4-dimethylpentanamide] | 0.95 µM |
| CC(C)(C)[C@@H](O)CC(=O)N[C@@H](COC(F)(F)F)c1cccc(OC(F)(F)F)c1 [Example 19, (S)—N—((R)-1-(3-(trifluoromethoxy)phenyl)-2-(trifluoromethoxy)ethyl)-3-hydroxy-4,4-dimethylpentanamide] | 0.94 µM |
| CCC[C@H](NC(=O)C[C@H](O)C(C)(C)C)c1cccc(OC(F)F)c1 [Example 20, (S)—N—((S)-1-(3-(difluoromethoxy)phenyl)butyl)-3-hydroxy-4,4-dimethylpentanamide] | 1.5 µM |
| CC(C)(C)[C@@H](O)CC(=O)N[C@@H](CCC(F)F)c1cccc(OC(F)F)c1 [Example 21, (S)—N—((S)-1-(3-(difluoromethoxy)phenyl)-4,4-difluorobutyl)-3-hydroxy-4,4-dimethylpentanamide] | 1 µM |
| CC(C)(C)[C@@H](O)CC(=O)N[C@@H](CC(F)F)c1cccc(OC(F)F)c1 [Example 22, (S)—N—((S)-1-(3-(difluoromethoxy)phenyl)-3,3-difluoropropyl)-3-hydroxy-4,4-dimethylpentanamide] | 4.5 µM |
| C[C@H](NC(=O)C[C@H](O)C(C)(C)C)c1cccc(OC(F)F)c1 [Example 23, (S)—N—((S)-1-(3-(difluoromethoxy)phenyl)ethyl)-3-hydroxy-4,4-dimethylpentanamide] | 1.5 µM |
| CC(C)(C)[C@@H](O)CC(=O)N[C@@H](CC#N)c1cccc(OC(F)(F)F)c1 [Example 24, (S)—N—((S)-2-cyano-1-(3-(trifluoromethoxy)phenyl)ethyl)-3-hydroxy-4,4-dimethylpentanamide] | 2.4 µM |
| CC(C)(C)[C@@H](O)CC(=O)N[C@@H](CCC#N)c1cccc(OC(F)(F)F)c1 [Example 25, (S)—N—((S)-3-cyano-1-(3-(trifluoromethoxy)phenyl)propyl)-3-hydroxy-4,4-dimethylpentanamide] | 1.9 µM |
| O=C(CC1(O)CC(F)(F)C1)N[C@@H](COC(F)F)c1cccc(OC(F)F)c1 [Example 26, (R)-2-(3,3-difluoro-1-hydroxycyclobutyl)-N-(2-(difluoromethoxy)-1-(3-(difluoromethoxy)phenyl)ethyl)acetamide] | 0.96 µM |
| O=C(CC1(O)CC(F)(F)C1)N[C@@H](COC(F)F)c1cccc(OC(F)(F)F)c1 [Example 27, (R)-2-(3,3-difluoro-1-hydroxycyclobutyl)-N-(2-(difluoromethoxy)-1-(3-(trifluoromethoxy)phenyl)ethyl)acetamide] | 2.3 µM |

The remaining lines, values ahead:

| EC50 | SMILES |
| --- | --- |
| 2.5 µM | O=C(CC(O)C1CC(F)(F)C1)N[C@@H](COC(F)F)c1cccc(OC(F)(F)F)c1 (single isomer, unassigned) [Example 6a] |
| 1.1 µM | O=C(CC(O)C1CC(F)(F)C1)N[C@@H](COC(F)F)c1cccc(OC(F)(F)F)c1 (single isomer, unassigned) [Example 6b] |
| 4 µM | CCC[C@H](NC(=O)CC(O)C1CC(F)(F)C1)c1cccc(OC(F)F)c1 (single isomer, unassigned) [Example 7a] |
| 25 µM | CCC[C@H](NC(=O)CC(O)C1CC(F)(F)C1)c1cccc(OC(F)F)c1 (single isomer, unassigned) [Example 7b] |
| 4.8 µM | CCC1(C(O)CC(=O)N[C@@H](COC(F)F)c2cccc(OC(F)F)c2)CC1 (single isomer, unassigned) [Example 8a] |
| 1.2 µM | CCC1(C(O)CC(=O)N[C@@H](COC(F)F)c2cccc(OC(F)F)c2)CC1 (single isomer, unassigned) [Example 8b] |
| 1.5 µM | CC(O)(CC(=O)N[C@@H](COC(F)F)c1cccc(OC(F)F)c1)C1(F)CC1 (single isomer, unassigned) [Example 9a] |
| 9.2 µM | CC(O)(CC(=O)N[C@@H](COC(F)F)c1cccc(OC(F)F)c1)C1(F)CC1 (single isomer, unassigned) [Example 9b] |
| 0.66 µM | CC(O)(CC(=O)N[C@@H](COC(F)F)c1cccc(OC(F)(F)F)c1)C1(F)CC1 (single isomer, unassigned) [Example 10a] |
| 4.1 µM | CC(O)(CC(=O)N[C@@H](COC(F)F)c1cccc(OC(F)(F)F)c1)C1(F)CC1 (single isomer, unassigned) [Example 10b] |
| 5.4 µM | CC(O)(CC(=O)N[C@@H](COC(F)F)c1cccc(OC(F)(F)F)c1)C1CC1 (single isomer, unassigned) [Example 11a] |
| 1.7 µM | CC(O)(CC(=O)N[C@@H](COC(F)F)c1cccc(OC(F)(F)F)c1)C1CC1 (single isomer, unassigned) [Example 11b] |
| 1.3 µM | CC(O)(CC(=O)N[C@@H](COC(F)F)c1cccc(OC(F)F)c1)CC(F)(F)F (single isomer, unassigned) [Example 12a] |
| 6.2 µM | CC(O)(CC(=O)N[C@@H](COC(F)F)c1cccc(OC(F)F)c1)CC(F)(F)F (single isomer, unassigned) [Example 12b] |
| 0.96 µM | CC(C)CC(C)(O)CC(=O)N[C@@H](COC(F)F)c1cccc(OC(F)F)c1 (single isomer, unassigned) [Example 13a] |
| 0.36 µM | CC(C)CC(C)(O)CC(=O)N[C@@H](COC(F)F)c1cccc(OC(F)F)c1 (single isomer, unassigned) [Example 13b] |
| 5.2 µM | CC(C)C(C)(O)CC(=O)N[C@@H](COC(F)F)c1cccc(OC(F)F)c1 (single isomer, unassigned) [Example 14a] |
| 1.3 µM | CC(C)C(C)(O)CC(=O)N[C@@H](COC(F)F)c1cccc(OC(F)F)c1 (single isomer, unassigned) [Example 14b] |
| 3.7 µM | CC1(C)CC(C(O)CC(=O)N[C@@H](COC(F)F)c2cccc(OC(F)F)c2)C1 (single isomer, unassigned) [Example 15a] |
| 0.65 µM | CC1(C)CC(C(O)CC(=O)N[C@@H](COC(F)F)c2cccc(OC(F)F)c2)C1 (single isomer, unassigned) [Example 15b] |
| 2.6 µM | O=C(CC(O)C1CCCC1)N[C@@H](COC(F)F)c1cccc(OC(F)F)c1 (single isomer, unassigned) [Example 16a] |
| 0.43 µM | O=C(CC(O)C1CCCC1)N[C@@H](COC(F)F)c1cccc(OC(F)F)c1 (single isomer, unassigned) [Example 16b] |
| 2.7 µM | COC[C@H](NC(=O)C[C@](C)(O)C1(F)CC1)c1cccc(OC(F)(F)F)c1 (single isomer, unassigned) [Example 36a] |
| 16 µM | COC[C@H](NC(=O)C[C@@](C)(O)C1(F)CC1)c1cccc(OC(F)(F)F)c1 (single isomer, unassigned) [Example 36b] |
